Test results taken from patent US20090197922A1, “COMPOSITIONS AND METHODS FOR TREATING PULMONARY HYPERTENSION” (The University of Chicago, priority 2006, published 2009).
“Also recorded” adds a separate entry of the source.

Experiments:
[1] = test system: hypoxia-induced model of pulmonary hypertension in Dahl SS rats; assay: Hemodynamic study (pressures, RV/LV weights) in hypoxia/SU5416 model of pulmonary hypertension; assay type: in vivo, rat; details: for BP mmHg (+/−) SE / PA mmHg (+/−) SE / RVSP mmHg (+/−) SE: 3½ Wk hypoxia (10% FiO2), sorafenib daily 2.5 mg/Kg, SU5416 day zero 20 mg/kg, 2 experiments as one cohort; for development of pulmonary hypertension (right ventricular and pulmonary artery pressures, right ventricle/left ventricular weights): hypoxia 10% FiO2, 3 weeks, SU5416 20 mg/kg once, sorafenib by gavage daily
Description: As part of the spectrum of sorafenib's pharmacologic activity overlaps with SU5416, a study was performed to determine whether sorafenib had similar effects or with additional mechanisms of inhibitory activity could counteract the effects of SU5416. Dahl Salt Sensitive rats were divided into 5 groups: normoxia+vehicle (normal, healthy control), hypoxia+SU5416 (positive control), hypoxia+sorafenib (safety comparison with SU5416), and hypoxia+sorafenib+SU5416 (therapeutic activity assessment). Echocardiograms were performed on all rats at the start of the study. Except for the normoxia group, all rats were maintained in a hypoxia chamber with a partial pressure of oxygen of 10% FiO2 for the duration of the study. Rats in the two SU5416 groups received one subcutaneous injection of SU5416 at the start of the study (20 mg/kg). Stock sorafenib solutions were prepared every three days, crushing and dissolving sorafenib tablets in EL/ethanol (50:50; Sigma Cremophor EL, 95% ethyl alcohol) at final concentration of 4 mg/mL, protected from light exposure and stored at room temperature. Final dosing solutions were prepared on the day of use by dilution of the stock solution to 1 mg/mL with water and administered by gavage to the rats daily. […] Organ and blood specimens were obtained for further evaluation. […] RV 3DE measurements were also determined (diameters+area), A=RV major diameter, B=RV annulus diastolic diameter & area, C=RV at ⅓ RV major diameter & area, D=RV at ⅔ RV major diameter & area.
(§1) Protocol includes an initial administration of SU5416 subcutaneously at 20 mg/kg followed daily by sorenfenib oral daily doses of 2.5 mg/kg. Some animals were exposed to chronic hypoxia (10% O2). The animals were divided into five experimental groups: hypoxia+sorafenib; hypoxia+SU5416+sorafenib, normoxia+vehicle control; Hypoxia+vehicle; and hypoxia+SU5416. PAP, RVSP, Echo, and DNA microarrays were used to measure various physiological and molecular biological parameters. FIG. 4 illustrates that hypoxia/SU5416-induces increases in right heart pressures and right heart hypertrophy (RV/LV+Septum).
Fifteen Dahl Salt Sensitive strain rats were divided into 5 groups: normoxia+vehicle (normal, healthy control), hypoxia+vehicle (hypoxia control), hypoxia+SU5416 (positive control), hypoxia+sorafenib (safety comparison with SU5416), and hypoxia+sorafenib+SU5416 (therapeutic activity assessment). Echocardiograms were performed on all rats at the start of the experiment. Except for the normoxia group, all rats were maintained in a hypoxia chamber with a partial pressure of oxygen of 10% FiO2 for the duration of the experiment. Rats in the 2 SU5416 groups received one subcutaneous injection of SU5416 at the start of the experiment (20 mg/kg). Stock sorafenib solutions were prepared every three days, crushing and dissolving sorafenib tablets in EL/ethanol (50:50; Sigma Cremophor EL, 95% ethyl alcohol) at final concentration of 4 mg/mL, protected from light exposure and stored at room temperature. Final dosing solutions were prepared on the day of use by dilution of the stock solution to 1 mg/mL with water and administered by gavage to the rats daily. […] Organ and blood specimens were obtained for further evaluation.

[2] = test system: hypoxia-induced model of pulmonary hypertension in Dahl SS rats; assay: Echocardiography in hypoxia/SU5416 model of pulmonary hypertension; assay type: in vivo, rat; design: CO (PA): unit not given beside the values; RVAW / LVPW / CO (Ao) / MPA: unit not given here; details: echocardiogram
Description: As part of the spectrum of sorafenib's pharmacologic activity overlaps with SU5416, a study was performed to determine whether sorafenib had similar effects or with additional mechanisms of inhibitory activity could counteract the effects of SU5416. […] Echocardiograms were performed on all rats at the start of the study. Except for the normoxia group, all rats were maintained in a hypoxia chamber with a partial pressure of oxygen of 10% FiO2 for the duration of the study. Rats in the two SU5416 groups received one subcutaneous injection of SU5416 at the start of the study (20 mg/kg). Stock sorafenib solutions were prepared every three days, crushing and dissolving sorafenib tablets in EL/ethanol (50:50; Sigma Cremophor EL, 95% ethyl alcohol) at final concentration of 4 mg/mL, protected from light exposure and stored at room temperature. Final dosing solutions were prepared on the day of use by dilution of the stock solution to 1 mg/mL with water and administered by gavage to the rats daily. After 3 weeks, all rats had echocardiography and hemodynamic studies. Organ and blood specimens were obtained for further evaluation. […] RV 3DE measurements were also determined (diameters+area), A=RV major diameter, B=RV annulus diastolic diameter & area, C=RV at ⅓ RV major diameter & area, D=RV at ⅔ RV major diameter & area.
Echocardiograms were performed on all rats at the start of the experiment. Except for the normoxia group, all rats were maintained in a hypoxia chamber with a partial pressure of oxygen of 10% FiO2 for the duration of the experiment. Rats in the 2 SU5416 groups received one subcutaneous injection of SU5416 at the start of the experiment (20 mg/kg). Stock sorafenib solutions were prepared every three days, crushing and dissolving sorafenib tablets in EL/ethanol (50:50; Sigma Cremophor EL, 95% ethyl alcohol) at final concentration of 4 mg/mL, protected from light exposure and stored at room temperature. Final dosing solutions were prepared on the day of use by dilution of the stock solution to 1 mg/mL with water and administered by gavage to the rats daily. After 3 weeks, all rats had echocardiography and hemodynamic studies. Organ and blood specimens were obtained for further evaluation.

[3] = test system: rat lung tissue; assay: Expression profiling of rat lung tissue RNA (Rat Chip II, Affymetrix); assay type: in vivo; details: compared to normoxia; GCRMA normalization, SAM (δ>0.639, minimum fold change>1.7)
Excerpt: To study potential mechanisms of sorafenib effects on PH RNA was isolated from rat lung tissue and analyzed using the Rat Chip II (Affymetrix). […] Mechanisms of PAH pathobiology is poorly understood therefore, to explore potential mechanistic pathways the inventors conducted bioinformatic studies and expression profiling. […] The candidate genes identified fell into various gene ontology classes, for example 4% were in the lung development and growth factors class (e.g., Bambi, Tgfb3, Ltbp2), 13% in the cell migration/ECM class (e.g., Itga3_predicted, Cspg4, Cxcll2, Reln, Col18a1, Cthrc1, Hmgcr, Cnn1, Col6a2, Jag2), 4% in the apoptosis class (e.g., Anzal, Col18a1, Jag2), 4% in the smooth muscle/fiber formation class (e.g., Des, Tpm3, Jph2), 10% in the cell proliferation class (e.g., Anxal, Timp1, Lamb—1 predicted, Cspg4, Cxcll2, Gja4, Jag2, Tgfb3), 6% in the blood vessel development class (e.g., Cxcll2, Cspg4, Gja4, Col18a1, Serpine1), and 5% in the angiogenesis class (Cxcl12, Cspg4, Col18a1, Serpine1).

[4] = Body weight of rats in hypoxia/SU5416 study; assay type: in vivo, rat; details: Dahl SS rats
Description: Fifteen Dahl Salt Sensitive strain rats were divided into 5 groups: normoxia+vehicle (normal, healthy control), hypoxia+vehicle (hypoxia control), hypoxia+SU5416 (positive control), hypoxia+sorafenib (safety comparison with SU5416), and hypoxia+sorafenib+SU5416 (therapeutic activity assessment). Echocardiograms were performed on all rats at the start of the experiment. Except for the normoxia group, all rats were maintained in a hypoxia chamber with a partial pressure of oxygen of 10% FiO2 for the duration of the experiment. Rats in the 2 SU5416 groups received one subcutaneous injection of SU5416 at the start of the experiment (20 mg/kg). Stock sorafenib solutions were prepared every three days, crushing and dissolving sorafenib tablets in EL/ethanol (50:50; Sigma Cremophor EL, 95% ethyl alcohol) at final concentration of 4 mg/mL, protected from light exposure and stored at room temperature. Final dosing solutions were prepared on the day of use by dilution of the stock solution to 1 mg/mL with water and administered by gavage to the rats daily. After 3 weeks, all rats had echocardiography and hemodynamic studies. Organ and blood specimens were obtained for further evaluation.

[5] = cited from earlier work
[6] = test system: rat lung vasculature; assay: Rat lung histopathology (H&E sections, Heath-Edwards grading); assay type: in vivo; details: Dahl SS rats, Hypoxia+SU5416+Sorafenib vs Hypoxia+SU5416, H/E sections
Description: The Heath-Edwards grading system grades pulmonary hypertension by microscopic features. The general classification is as follows:
as §1

[7] = test system: hypoxia-induced model of pulmonary hypertension in Dahl SS rats; details: previously demonstrated; cited from earlier work
[8] = room temperature and neutral pH; cited from earlier work
[9] = Wade et al., 2004; cited from earlier work
[10] = test system: PAH patients; details: case report, combination therapy with imatinib at 3 and 6 months; cited from earlier work
[11] = PRE (baseline at start of experiment)

Structure (SMILES)	BP mmHg (+/−) SE [1]	PA mmHg (+/−) SE [1]	RVSP mmHg (+/−) SE [1]	development of pulmonary hypertension (right ventricular and pulmonary artery pressures, right ventricle/left ventricular weights) [1]	CI (Ao) ([2]; POST (after 3 weeks hypoxia))	CI(PA) ([2]; POST (after 3 weeks hypoxia))	CO (Ao) ([2]; POST (after 3 weeks hypoxia))	CO (PA) ([2]; POST (after 3 weeks hypoxia))	FS (%) ([2]; POST (after 3 weeks hypoxia))	LV Mass (gram) ([2]; POST (after 3 weeks hypoxia))	LVPW ([2]; POST (after 3 weeks hypoxia))	MPA ([2]; POST (after 3 weeks hypoxia))	PA PG (mmHg) ([2]; POST (after 3 weeks hypoxia))	TV max PG (mmHg) ([2]; POST (after 3 weeks hypoxia))	CI (Ao) [2, 11]	CI(PA) [2, 11]	CO (Ao) [2, 11]	CO (PA) [2, 11]	FS (%) [2, 11]	LV Mass (gram) [2, 11]	also measured
CNC(=O)c1cc(Oc2ccc(NC(=O)Nc3ccc(Cl)c(C(F)(F)F)c3)cc2)ccn1 [Sorafenib]	97 +/− 4 mmHg	18 +/− 2 mmHg	17 +/− 2 mmHg	attenuated physiologic and histopathologic changes in PAH; also recorded: protect SU5416-treated hypoxia-exposed rats from pulmonary arterial hypertension	1.00 ± 0.80	0.82 ± 0.17	326 ± 246	271 ± 48	68 ± 20%	1.30 ± 0.10 gram	0.18 ± 0.03	0.38 ± 0.07	3.87 ± 0.95 mmHg	4.85 ± 3.46 mmHg	1.77 ± 1.30	1.70 ± 1.43	577 ± 418	551 ± 467	78 ± 5%	1.60 ± 0.30 gram	development of pulmonary hypertension (right ventricular and pulmonary artery pressures, right ventricle/left ventricular weights) ([1]; listed as sorafenib): prevents hypoxia+SU5416 induced pulmonary hypertension and remodeling; also recorded: no significant change in pressures or weights; also recorded: does not exacerbate hypoxia-induced hypertension; development of pulmonary hypertension (right ventricular and pulmonary artery pressures, right ventricle/left ventricular weights) ([1]; listed as sorefenib): did not develop evidence of PAH; right heart hypertrophy (RV/LV+Septum) ([1]; hypoxia+SU5416, sorafenib oral daily 2.5 mg/kg): prevented hypoxia+SU5416 development of right heart hypertrophy; LVPW [2, 11]: 0.21 ± 0.03; MPA [2, 11]: 0.48 ± 0.07; PA PG (mmHg) [2, 11]: 6.10 ± 5.52 mmHg; RVAW [2, 11]: 0.11; genes differentially regulated [3]: at least 179 genes; Wt ([4]; POST (after 3 weeks hypoxia)): 331 ± 15 g; Wt [4, 11]: 328 ± 10 g; MTD ([5]; known MTD, oral): 400 mg twice daily; drug interactions with warfarin or digoxin ([5]; previous sorafenib studies): have not demonstrated known drug interactions; remodeling of the lung vasculature (histopathology, Heath-Edwards grading) [6]: Prevents Remodeling; remodeling of the lung vasculature (histopathology, Heath-Edwards grading) ([6]; listed as sorafenib): dramatic improvement
Cc1cc(C)c(/C=C2\C(=O)Nc3ccccc32)[nH]1 [SU5416]	78 +/− 4 mmHg	33 +/− 3 mmHg	30 +/− 4 mmHg	developed pulmonary hypertension	0.82 ± 0.22	0.87 ± 0.14	261 ± 55	279 ± 69	63 ± 4%	1.25 ± 0.33 gram	0.16 ± 0.02	0.41 ± 0.05	2.05 ± 0.92 mmHg	5.63 ± 4.07 mmHg	0.95 ± 0.06	1.21 ± 0.26	310 ± 10	400 ± 99	71 ± 11%	1.30 ± 0.14 gram	effect on pulmonary hypertension in hypoxic rats (previous reports) [7]: exacerbate pulmonary hypertension; RVAW ([2]; POST (after 3 weeks hypoxia)): 0.16 ± 0.03; LVPW [2, 11]: 0.16 ± 0.04; MPA [2, 11]: 0.45 ± 0.01; PA PG (mmHg) [2, 11]: 3.65 ± 2.76 mmHg; RVAW [2, 11]: 0.07; Wt ([4]; POST (after 3 weeks hypoxia)): 324 ± 22 g; Wt [4, 11]: 328 ± 11 g
CCCCC[C@H](O)CC[C@@H]1[C@H]2Cc3cccc(OCC(=O)O)c3C[C@H]2C[C@H]1O [Treprostinil]	–	–	–	–	–	–	–	–	–	–	–	–	–	–	–	–	–	–	–	–	chemical stability [8]: chemically stable at room temperature and neutral pH; half-life [9]: 3 to 4 h
Cc1ccc(NC(=O)c2ccc(CN3CCN(C)CC3)cc2)cc1Nc1nccc(-c2cccnc2)n1 [imatinib]	–	–	–	–	–	–	–	–	–	–	–	–	–	–	–	–	–	–	–	–	improvement in 6MW [10]: 60%
